The nature of the series: Iron dialysability assay (in vitro dialysable iron from fortified dough). The note with it: dough from whole-grain wheat flour fortified with 50 mg/kg iron; normalized to dough fortified with ferrous sulfate; means of 4-5 experiments; ** = significantly different from ferrous sulfate (p < 0.05).

Experimental: The crude mass was aliquoted and small lumps were formed (10 g±0.5 g) which were used for the iron dialysability assay.
All glassware and paddles were cleaned with 10% HNO3 (24 hours) and rinsed five times with Milli-Q® water. […] The resulting suspension was poured into a VanKel Vial and the blender beaker was rinsed twice with Milli-Q® water (20 mL) and the rinse water was added to the suspension. The stirring speed of the paddle was adjusted to 200 rpm at 37° C. […] The pH of the suspension was adjusted to 2.0 with 6N HCl and a Pepsin-HCl solution (5 mL) was added. […] A clean dialysis membrane (20 cm, Spectra/Por7, Molecular weight cut-off 8 kD) was filled with a determined amount of 0.1M NaCO3 solution and adjusted to a total volume of 25 mL with Milli-Q® water. The dialysis bag was placed in the Erlenmeyer flask containing aliquot (iii), and shaken at 37° C. at 100 beats/min for 30 minutes while the pH was being monitored. […] After that time, the contents of the dialysis bag were recovered for quantitative analysis of the iron content.
Total iron content of yeast and wheat flour was determined by inductively coupled plasma atomic emission spectrometry. […] The emission of the individual elements was measured at specific wavelengths and concentrations were quantified from standard solutions. […]

Compound `O=S(=O)([O-])[O-].[Fe+2]` [Iron sulphate] gave a Relative availability of 1.0.
